Reference: article PMC3961306, “Comparison of the Cancer Gene Targeting and Biochemical Selectivities of All Targeted Kinase Inhibitors Approved for Clinical Use” (PLoS ONE, 2014)
Like-named read-outs stand apart in the source and are kept apart here.

Assays:
[1] = tested on: forty-four human cancer cell lines; assay: Cell proliferation assay (ATPlite, 72 hours) in the 44 cell line Oncolines panel; type: cell-based; settings: for IC50: Homo sapiens
[2] = molecular target: panel of more than 300 wild-type and mutant kinases (313 kinase panel) (Homo sapiens, UniProt P22694); assay: Kinase profiling in a biochemical assay panel (mobility shift assays and ELISA), %-inhibition at 1 μM; selectivity entropy; settings: kinase PKACβ; 1 μM
[3] = molecular target: T1, panel of more than 300 wild-type and mutant kinases (313 kinase panel) (Homo sapiens, UniProt P51955); assay: as above; settings: kinase NEK2; 1 μM
T1 sequence (P51955 1-445): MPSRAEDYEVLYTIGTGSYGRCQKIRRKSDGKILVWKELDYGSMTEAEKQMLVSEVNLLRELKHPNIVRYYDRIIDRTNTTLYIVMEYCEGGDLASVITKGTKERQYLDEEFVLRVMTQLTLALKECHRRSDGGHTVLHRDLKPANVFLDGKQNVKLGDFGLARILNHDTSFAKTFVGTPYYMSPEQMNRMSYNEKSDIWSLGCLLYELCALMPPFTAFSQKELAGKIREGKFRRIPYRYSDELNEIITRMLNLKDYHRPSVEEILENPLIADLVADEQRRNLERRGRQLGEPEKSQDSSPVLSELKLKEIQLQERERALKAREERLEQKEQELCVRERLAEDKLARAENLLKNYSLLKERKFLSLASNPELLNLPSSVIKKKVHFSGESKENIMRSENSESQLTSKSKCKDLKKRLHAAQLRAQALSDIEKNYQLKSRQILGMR

[4] = molecular target: panel of more than 300 wild-type and mutant kinases (313 kinase panel) (Homo sapiens, UniProt Q9NQU5); assay: as above; settings: kinase PAK6; 1 μM
[5] = 4-4 cell, read-out: cell panel IC50, J82
[6] = 4-4 cell, read-out: cell panel IC50, SJCRH30
[7] = 4-4 cell, read-out: cell panel IC50, SR
[8] = 769-P, read-out: cell panel IC50, 769-P
[9] = 786-0, read-out: cell panel IC50, 786-0
[10] = A204, read-out: cell panel IC50, A-204
[11] = A498, read-out: cell panel IC50, A-498
[12] = A549, read-out: cell panel IC50, A-549
[13] = A-375, read-out: cell panel IC50, A375
[14] = A-427, read-out: cell panel IC50, A-427
[15] = ACHN, read-out: cell panel IC50, ACHN
[16] = AN3-CA, read-out: cell panel IC50, AN3 CA
[17] = AU565, read-out: cell panel IC50, AU-565
[18] = BT-20, read-out: cell panel IC50, BT-20
[19] = BT-549, read-out: cell panel IC50, BT-549
[20] = BXPC-3, read-out: cell panel IC50, BxPC-3
[21] = C-33-A, read-out: cell panel IC50, C-33 A
[22] = CAL-27, read-out: cell panel IC50, CAL 27
[23] = CCRF-CEM, read-out: cell panel IC50, CCRF-CEM
[24] = DLD-1, read-out: cell panel IC50, DLD-1
[25] = FaDu, read-out: cell panel IC50, FaDu
[26] = HCT-15, read-out: cell panel IC50, HCT-15
[27] = HCT-116, read-out: cell panel IC50, HCT-116
[28] = Hs-578T, read-out: cell panel IC50, Hs 578T
[29] = Jurkat E6.1, read-out: cell panel IC50, Jurkat E6.1
[30] = K562, read-out: cell panel IC50, K-562
[31] = LS174T, read-out: cell panel IC50, LS 174T
[32] = LoVo, read-out: cell panel IC50, LoVo
[33] = MG-63, read-out: cell panel IC50, MG-63
[34] = MOLT-4, read-out: cell panel IC50, MOLT-4
[35] = MeWo, read-out: cell panel IC50, MeWo
[36] = NCI-H82, read-out: cell panel IC50, NCI-H82
[37] = NCI-H460, read-out: cell panel IC50, NCI-H460
[38] = OVCAR-3, read-out: cell panel IC50, OVCAR-3
[39] = RPMI-7951, read-out: cell panel IC50, RPMI-7951
[40] = SHP77, read-out: cell panel IC50, SHP-77
[41] = SK-N-AS, read-out: cell panel IC50, SK-N-AS
[42] = SW48, read-out: cell panel IC50, SW48
[43] = SW480, read-out: cell panel IC50, SW480
[44] = SW-620, read-out: cell panel IC50, SW620
[45] = U2OS, read-out: cell panel IC50, U-2 OS
[46] = U-87 MG, 72 h, read-out: IC50 in cell proliferation assay (table S5 cellpanel data)

Compound: Cc1nc(Nc2ncc(C(=O)Nc3c(C)cccc3Cl)s2)cc(N2CCN(CCO)CC2)n1 [dasatinib]
- Difference between the average IC50 in the cell panel and the most potent IC50 ([1]; 44 cell line panel, Figure 2D): more than 1000 fold
- IC50 [1, 5]: 2.5 µM
- IC50 ([1]; 4-4 cell, read-out: cell panel IC50, PA-1): 0.055 µM
- IC50 [1, 6]: 1.29 µM
- IC50 [1, 7]: 3 µM
- IC50 [1, 8]: 0.055 µM
- IC50 [1, 9]: 0.359 µM
- IC50 ([1]; A 172, read-out: cell panel IC50, A-172): 0.099 µM
- IC50 [1, 10]: 0.021 µM
- IC50 [1, 11]: 0.681 µM
- IC50 [1, 12]: 10.2 µM
- IC50 [1, 13]: 0.518 µM
- IC50 [1, 14]: 2.18 µM
- IC50 [1, 15]: 0.048 µM
- IC50 [1, 16]: 3.55 µM
- IC50 [1, 17]: 7.07 µM
- IC50 [1, 18]: 9.8 µM
- IC50 [1, 19]: 0.143 µM
- IC50 [1, 20]: 0.204 µM
- IC50 [1, 21]: 0.009 µM
- IC50 [1, 22]: 0.153 µM
- IC50 [1, 23]: 7.19 µM
- IC50 [1, 24]: 3.4 µM
- IC50 [1, 25]: 0.446 µM
- IC50 [1, 26]: 1.68 µM
- IC50 [1, 27]: 14.2 µM
- IC50 [1, 28]: 0.079 µM
- IC50 [1, 29]: 2.39 µM
- IC50 [1, 30]: 0.00047 µM
- IC50 [1, 31]: 3.5 µM
- IC50 [1, 32]: 1.58 µM
- IC50 [1, 33]: > 10 µM
- IC50 [1, 34]: 0.862 µM
- IC50 [1, 35]: 17 µM
- IC50 [1, 36]: 10.3 µM
- IC50 [1, 37]: 19 µM
- IC50 [1, 38]: 0.12 µM
- IC50 [1, 39]: 0.034 µM
- IC50 [1, 40]: > 31.6 µM
- IC50 [1, 41]: 0.636 µM
- IC50 [1, 42]: > 31.6 µM
- IC50 [1, 43]: 2.1 µM
- IC50 [1, 44]: 12.4 µM
- IC50 [1, 45]: 3.23 µM
- IC50 [1, 46]: 14.9 µM
- %-inhibition of PKACβ [2]: -1.68%

Compound: COc1cc2c(Nc3ccc(Br)cc3F)ncnc2cc1OCC1CCN(C)CC1 [vandetanib]
- IC50 [1, 5]: 5.08 µM
- IC50 [1, 6]: 4.02 µM
- IC50 [1, 7]: 4.15 µM
- IC50 [1, 8]: 1.22 µM
- IC50 [1, 9]: 4.37 µM
- IC50 [1, 10]: 2.5 µM
- IC50 [1, 11]: 3.31 µM
- IC50 [1, 12]: 5.49 µM
- IC50 [1, 13]: 3.27 µM
- IC50 [1, 14]: 2.55 µM
- IC50 [1, 15]: 2.28 µM
- IC50 [1, 16]: 0.489 µM
- IC50 [1, 17]: 3.51 µM
- IC50 [1, 18]: 14.6 µM
- IC50 [1, 19]: 10 µM
- IC50 [1, 20]: 2.1 µM
- IC50 [1, 21]: 0.643 µM
- IC50 [1, 22]: 1 µM
- IC50 [1, 23]: 6.65 µM
- IC50 [1, 24]: 6.07 µM
- IC50 [1, 25]: 1.29 µM
- IC50 [1, 26]: 7.38 µM
- IC50 [1, 27]: 9.24 µM
- IC50 [1, 28]: 3.91 µM
- IC50 [1, 29]: 3.95 µM
- IC50 [1, 30]: 0.908 µM
- IC50 [1, 31]: 2.81 µM
- IC50 [1, 32]: 1.45 µM
- IC50 [1, 33]: 6.46 µM
- IC50 [1, 34]: 3.4 µM
- IC50 [1, 35]: 5.52 µM
- IC50 [1, 36]: 7.2 µM
- IC50 [1, 37]: 11.9 µM
- IC50 [1, 38]: 3.08 µM
- IC50 [1, 39]: 4.14 µM
- IC50 [1, 40]: 14.6 µM
- IC50 [1, 41]: 4.23 µM
- IC50 [1, 42]: > 31.6 µM
- IC50 [1, 43]: 13.8 µM
- IC50 [1, 44]: 16.4 µM
- IC50 [1, 45]: 4.09 µM
- IC50 [1, 46]: 7.41 µM
- %-inhibition of PKACβ [2]: -0.0886%
- %-inhibition of NEK2 [3]: -7.42%
- %-inhibition of PAK6 [4]: -5.42%
